Activity calls are given as the source filed them. The calls are words filed in the database; no cut-off is given here.
Tests used:
[1] = (§1) Displacement of [3H]EBOB from Wistar rat brain membrane GABA receptor by liquid scintillation counting
Rattus norvegicus [2] = species on record: Rattus norvegicus; assay: as §1
Rattus norvegicus [3] = species on record: Rattus norvegicus; assay: Displacement of [3H]EBOB from GABA receptor in 365 nm ultraviolet light irradiated Wistar rat brain P2 membrane by photoaffinity labeling experiment in presence of picrotoxinin measured after membrane washout
Rattus norvegicus [4] = species on record: Rattus norvegicus; assay: Displacement of [3H]EBOB from GABA receptor in 365 nm ultraviolet light irradiated Wistar rat brain P2 membrane by photoaffinity labeling experiment
[5] = (§2) Displacement of [3H]EBOB from housefly head membrane GABA receptor by liquid scintillation counting; design: species or system Musca domestica
Musca domestica = assay: as §2
Rattus norvegicus [6] = species on record: Rattus norvegicus; assay: Displacement of [3H]EBOB from GABA receptor in Wistar rat brain P2 membrane in presence of fipronil measured after membrane washout; type: cell membranes

SMILES | IC50 [1] [nM] | Activity (Rattus norvegicus [2]) | Activity (Rattus norvegicus [3]) | Activity (Rattus norvegicus [4]) | IC50 [5] [nM] | Activity (Musca domestica) | Activity (Rattus norvegicus [6])
COC(=O)CCC#Cc1ccc(C(=O)Oc2ccc(C3(C(F)(F)F)N=N3)cc2[N+](=O)[O-])cc1 | 1490 | Dose-dependent effect | inactive | Active | 240 | Dose-dependent effect | Active
CC(C)(C)CCOC(=O)c1ccc(C#CCCC(=O)O)cc1 | 88 | – | – | – | 3410 | – | –
